Results reported in patent US8722849B2, “Polypeptides” (Novo Nordisk A/S, priority 2011, dated 2014).
≈ marks a conversion by molar mass, not a printed value. Where two headings read alike, the source gives them in different places. Starred links: 1 amine or outer side, 2 acyl side, 3 side chain; linkers in the order of their positions; H or OH if unused. Positions of bridges follow the written chain, without caps; N, C: chain ends. Residues, ends and D or L forms follow the SMILES beside them. *: point of attachment. C20 diacid = O=C(O)CCCCCCCCCCCCCCCCCCC(=O)*; γGlu = O=C(O)[C@H](CCC(=O)[*:2])N[*:1]

Tests used:
[1] = target: T1, rat amylin 3(a) receptor (rat calcitonin(a) receptor + rat RAMP3) (Rattus norvegicus, UniProt P32214+Q9JJ73); test: Assay (II)b functional cAMP FlashPlate assay, rat amylin receptor; type: cell-based; settings: Table 11
T1 construct: expressed in transfected cells; host or cells: BHK tk'ts 13
T1 sequence (P32214 25-479 isoform P32214-2 limits assumed): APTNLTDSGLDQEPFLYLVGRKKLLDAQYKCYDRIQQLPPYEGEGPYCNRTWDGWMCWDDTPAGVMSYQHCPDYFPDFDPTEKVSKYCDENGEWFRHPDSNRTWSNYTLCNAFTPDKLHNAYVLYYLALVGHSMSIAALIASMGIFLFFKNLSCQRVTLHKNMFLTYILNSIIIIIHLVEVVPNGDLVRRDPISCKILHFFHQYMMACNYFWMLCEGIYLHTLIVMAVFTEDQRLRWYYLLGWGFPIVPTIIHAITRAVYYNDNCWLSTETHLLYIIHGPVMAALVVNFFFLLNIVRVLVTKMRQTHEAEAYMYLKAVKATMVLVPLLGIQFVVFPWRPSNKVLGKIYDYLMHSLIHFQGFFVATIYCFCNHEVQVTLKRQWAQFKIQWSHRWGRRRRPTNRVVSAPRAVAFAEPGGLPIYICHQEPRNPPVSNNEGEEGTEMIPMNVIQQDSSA
T1 sequence (Q9JJ73 23-147 partner): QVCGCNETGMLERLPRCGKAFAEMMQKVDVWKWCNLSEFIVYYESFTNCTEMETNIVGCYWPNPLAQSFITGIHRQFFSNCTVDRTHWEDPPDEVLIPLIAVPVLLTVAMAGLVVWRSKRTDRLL
Method in brief: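 cAMP accumulation in transiently transfected BHK tk'ts 13 cells, 100.000 cells/well, expressing rat calcitonin(a) receptor or its RAMP3 co-expression form (amylin 3(a)): 30 min stimulation with IBMX, 24 hours post-transfection. Readout by competition of cellular versus radiolabelled cAMP in FlashPlates, scintillation counted after 3 h.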

[2] = Assay (III) ThT fibrillation assay for physical stability; type: physicochemical
Method in brief: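 Freshly prepared formulations, pH-adjusted, with 1 μM ThT; four or eight replicates incubated at 37 °C under 960 rpm orbital shaking. Fluorescence (ex 444/em 485 nm) read every 20 min; […]. Peptide concentration measured by RP-HPLC before and after the run.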

[3] = Assay (IV) determination of solubility; type: physicochemical
Method in brief: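 Eight 100 mM buffers (glycylglycine pH 3.0–5.0, bistrispropane pH 6.0–8.0) each received an equal volume of polypeptide dissolved in water at ~500 nmol/ml. Soluble polypeptide was measured by HPLC following 18 hours at room temperature and centrifugation.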

[4] = bistrispropane buffer, pH 6, pH 6.0, read-out: Solubility pH 6.0
[5] = bistrispropane buffer, pH 6.5, pH 6.5, read-out: Solubility pH 6.5
[6] = bistrispropane buffer, pH 7, pH 7.0, 18 hours at room temperature, Table 3, read-out: Solubility pH 7.0
[7] = bistrispropane buffer, pH 7, pH 7.0, Table 8, read-out: Solubility pH 7.0
[8] = bistrispropane buffer, pH 7, pH 7.0, Table 9, read-out: Solubility pH 7.0
[9] = bistrispropane buffer, pH 7, pH 7.0, read-out: Solubility pH 7.0
[10] = bistrispropane buffer, pH 7.5, pH 7.5, Table 9, read-out: Solubility pH 7.5
[11] = bistrispropane buffer, pH 7.5, pH 7.5, read-out: Solubility pH 7.5
[12] = bistrispropane buffer, pH 8, pH 8.0, read-out: Solubility pH 8.0
[13] = glycylglycine buffer, pH 3, pH 3.0, read-out: Solubility pH 3.0
[14] = glycylglycine buffer, pH 4, pH 4.0, 18 hours at room temperature, Table 2, read-out: Solubility pH 4.0
[15] = glycylglycine buffer, pH 4, pH 4.0, read-out: Solubility pH 4.0
[16] = glycylglycine buffer, pH 5, pH 5.0, read-out: Solubility pH 5.0

EC50 [1] [nM] | ThT pH 4.0 lag time ([2]; Table 8) [h] | ThT pH 4.0 lag time ([2]; Table 9) [h] | ThT pH 4.0 lag time ([2]; ThT fibrillation assay) [h] | ThT pH 4.0 lag time (h) ([2]; ThT fibrillation assay) | solubility at 18 h [3, 4] [µM] | solubility at 18 h [3, 5] [µM] | solubility at 18 h [3, 6] [µM] | solubility at 18 h [3, 7] [µM] | solubility at 18 h [3, 8] [µM] | solubility at 18 h [3, 9] [µM] | solubility at 18 h [3, 10] [µM] | solubility at 18 h [3, 11] [µM] | solubility at 18 h [3, 12] [µM] | solubility at 18 h [3, 13] [µM] | solubility at 18 h [3, 14] [µM] | solubility at 18 h [3, 15] [µM] | solubility at 18 h [3, 16] [µM] | SMILES
0.151 | >45 | >45 | >45 | >45 | > 200 | > 200 | > 200 | > 200 | > 200 | > 200 | > 200 | > 200 | > 200 | > 200 | > 200 | > 200 | > 200 | CC[C@H](C)[C@H](NC(=O)[C@@H]1CCCN1C(=O)CNC(=O)[C@H](Cc1ccccc1)NC(=O)[C@H](CC(N)=O)NC(=O)[C@H](CC(N)=O)NC(=O)[C@H](CO)NC(=O)[C@H](CO)NC(=O)[C@H](Cc1c[nH]cn1)NC(=O)[C@H](CCCNC(=N)N)NC(=O)[C@H](CC(C)C)NC(=O)[C@H](Cc1ccccc1)NC(=O)[C@H](CCC(=O)O)NC(=O)[C@H](C)NC(=O)[C@H](CC(C)C)NC(=O)[C@H](CCCNC(=N)N)NC(=O)[C@H](CCC(N)=O)NC(=O)[C@@H](NC(=O)[C@H](C)NC(=O)[C@@H]1CSSC[C@H](NC(=O)[C@H](Cc2c[nH]cn2)NC(=O)CNC(=O)CC[C@H](NC(=O)CCCCCCCCCCCCCCCCCCC(=O)O)C(=O)O)C(=O)N[C@@H](CC(N)=O)C(=O)N[C@@H]([C@@H](C)O)C(=O)N[C@@H](C)C(=O)N[C@@H]([C@@H](C)O)C(=O)N1)[C@@H](C)O)C(=O)N[C@@H](CC(C)C)C(=O)N1CCC[C@H]1C(=O)N1CCC[C@H]1C(=O)N[C@H](C(=O)N[C@@H](CC(N)=O)C(=O)N[C@H](C(=O)NCC(=O)N[C@@H](CO)C(=O)N[C@@H](CC(N)=O)C(=O)N[C@H](C(=O)N1CCC[C@H]1C(N)=O)[C@@H](C)O)C(C)C)[C@@H](C)O [Example 89, N-alpha-[(S)-4-Carboxy-4-(19-carboxynonadecanoylamino)butyryl]-Gly-[His1,Glu14,Arg17,Pro37]-pramlintide] ({C20 diacid-γGlu}-GHCNTATCATQRLAEFLRHSSNNFGPILPPTNVGSNTP-NH2; disulfide 3-8 (inferred))
0.217 | >45 | >45 | >45 | >45 | > 200 | > 200 | > 200 | > 200 | > 200 | > 200 | > 200 | > 200 | > 200 | > 200 | > 200 | > 200 | > 200 | CC[C@H](C)[C@H](NC(=O)[C@@H]1CCCN1C(=O)CNC(=O)[C@H](Cc1ccccc1)NC(=O)[C@H](CC(N)=O)NC(=O)[C@H](CC(N)=O)NC(=O)[C@H](CO)NC(=O)[C@H](CO)NC(=O)[C@H](Cc1c[nH]cn1)NC(=O)[C@H](CCCNC(=N)N)NC(=O)[C@H](CC(C)C)NC(=O)[C@H](Cc1ccccc1)NC(=O)[C@H](CCC(=O)O)NC(=O)[C@H](C)NC(=O)[C@H](CC(C)C)NC(=O)[C@H](CCCNC(=N)N)NC(=O)[C@H](CCC(N)=O)NC(=O)[C@@H](NC(=O)[C@H](C)NC(=O)[C@@H]1CSSC[C@H](NC(=O)[C@H](Cc2c[nH]cn2)NC(=O)CC[C@H](NC(=O)CCCCCCCCCCCCCCCCCCC(=O)O)C(=O)O)C(=O)N[C@@H](CC(N)=O)C(=O)N[C@@H]([C@@H](C)O)C(=O)N[C@@H](C)C(=O)N[C@@H]([C@@H](C)O)C(=O)N1)[C@@H](C)O)C(=O)N[C@@H](CC(C)C)C(=O)N1CCC[C@H]1C(=O)N1CCC[C@H]1C(=O)N[C@H](C(=O)N[C@@H](CC(N)=O)C(=O)N[C@H](C(=O)NCC(=O)N[C@@H](CO)C(=O)N[C@@H](CC(N)=O)C(=O)N[C@H](C(=O)N1CCC[C@H]1C(N)=O)[C@@H](C)O)C(C)C)[C@@H](C)O [Example 90, N-alpha-[(S)-4-Carboxy-4-(19-carboxynonadecanoylamino)butyryl]-[His1,Glu14,Arg17,Pro37]-pramlintide] ({C20 diacid-γGlu}-HCNTATCATQRLAEFLRHSSNNFGPILPPTNVGSNTP-NH2; disulfide 2-7 (inferred); C-terminus assumed)
0.138 |  |  |  | 19 | > 200 | 84 (≈ 373 µg/mL) |  |  |  | 74 (≈ 329 µg/mL) |  | 163 (≈ 724 µg/mL) | > 200 | > 200 | > 200 | > 200 | > 200 | CC[C@H](C)[C@H](NC(=O)[C@@H]1CCCN1C(=O)CNC(=O)[C@H](Cc1ccccc1)NC(=O)[C@H](CC(N)=O)NC(=O)[C@H](CC(N)=O)NC(=O)[C@H](CO)NC(=O)[C@H](CO)NC(=O)[C@H](Cc1c[nH]cn1)NC(=O)[C@@H](NC(=O)[C@H](CC(C)C)NC(=O)[C@H](Cc1ccccc1)NC(=O)[C@H](CCC(=O)O)NC(=O)[C@H](C)NC(=O)[C@H](CC(C)C)NC(=O)[C@H](CCCNC(=N)N)NC(=O)[C@H](CCC(N)=O)NC(=O)[C@@H](NC(=O)[C@H](C)NC(=O)[C@@H]1CSSC[C@H](NC(=O)[C@H](CCCCN)NC(=O)CC[C@H](NC(=O)CCCCCCCCCCCCCCCCCCC(=O)O)C(=O)O)C(=O)N[C@@H](CC(N)=O)C(=O)N[C@@H]([C@@H](C)O)C(=O)N[C@@H](C)C(=O)N[C@@H]([C@@H](C)O)C(=O)N1)[C@@H](C)O)C(C)C)C(=O)N[C@@H](CC(C)C)C(=O)N1CCC[C@H]1C(=O)N1CCC[C@H]1C(=O)N[C@H](C(=O)N[C@@H](CC(N)=O)C(=O)N[C@H](C(=O)NCC(=O)N[C@@H](CO)C(=O)N[C@@H](Cc1c[nH]cn1)C(=O)N[C@H](C(=O)N[C@@H](Cc1ccc(O)cc1)C(N)=O)[C@@H](C)O)C(C)C)[C@@H](C)O [Example 93, N-alpha-[(S)-4-Carboxy-4-(19-carboxynonadecanoylamino)butyryl]-[Glu14,His35]-pramlintide] ({C20 diacid-γGlu}-KCNTATCATQRLAEFLVHSSNNFGPILPPTNVGSHTY-NH2; disulfide 2-7 (inferred); C-terminus assumed)
0.088 | >45 | >45 | >45 | >45 | > 200 | > 200 | > 200 | > 200 | > 200 | > 200 | > 200 | > 200 | > 200 | > 200 | > 200 | > 200 | > 200 | CC[C@H](C)[C@H](NC(=O)[C@@H]1CCCN1C(=O)CNC(=O)[C@H](Cc1ccccc1)NC(=O)[C@H](CC(N)=O)NC(=O)[C@H](CC(N)=O)NC(=O)[C@H](CO)NC(=O)[C@H](CO)NC(=O)[C@H](Cc1c[nH]cn1)NC(=O)[C@H](Cc1c[nH]cn1)NC(=O)[C@H](CC(C)C)NC(=O)[C@H](Cc1ccccc1)NC(=O)[C@H](CCC(=O)O)NC(=O)[C@H](C)NC(=O)[C@H](CC(C)C)NC(=O)[C@H](CCCNC(=N)N)NC(=O)[C@H](CCC(N)=O)NC(=O)[C@@H](NC(=O)[C@H](C)NC(=O)[C@@H]1CSSC[C@H](NC(=O)[C@H](CCCNC(=N)N)NC(=O)CC[C@H](NC(=O)CCCCCCCCCCCCCCCCCCC(=O)O)C(=O)O)C(=O)N[C@@H](CC(N)=O)C(=O)N[C@@H]([C@@H](C)O)C(=O)N[C@@H](C)C(=O)N[C@@H]([C@@H](C)O)C(=O)N1)[C@@H](C)O)C(=O)N[C@@H](CC(C)C)C(=O)N1CCC[C@H]1C(=O)N1CCC[C@H]1C(=O)N[C@H](C(=O)N[C@@H](CC(N)=O)C(=O)N[C@H](C(=O)NCC(=O)N[C@@H](CO)C(=O)N[C@@H](CC(N)=O)C(=O)N[C@H](C(=O)N1CCC[C@H]1C(N)=O)[C@@H](C)O)C(C)C)[C@@H](C)O [Example 96, N-alpha-[(S)-4-Carboxy-4-(19-carboxynonadecanoylamino)butyryl]-[Arg1,Glu14,His17,Pro37]-pramlintide] ({C20 diacid-γGlu}-RCNTATCATQRLAEFLHHSSNNFGPILPPTNVGSNTP-NH2; disulfide 2-7 (inferred))
